Usually IC50 stands for the concentration that inhibits the measured activity by half.

The structures appear in SMILES notation.

In the assay the target is T1, Pancreatic triacylglycerol lipase (Sus scrofa, UniProt P00591).
T1 sequence (P00591 whole entry): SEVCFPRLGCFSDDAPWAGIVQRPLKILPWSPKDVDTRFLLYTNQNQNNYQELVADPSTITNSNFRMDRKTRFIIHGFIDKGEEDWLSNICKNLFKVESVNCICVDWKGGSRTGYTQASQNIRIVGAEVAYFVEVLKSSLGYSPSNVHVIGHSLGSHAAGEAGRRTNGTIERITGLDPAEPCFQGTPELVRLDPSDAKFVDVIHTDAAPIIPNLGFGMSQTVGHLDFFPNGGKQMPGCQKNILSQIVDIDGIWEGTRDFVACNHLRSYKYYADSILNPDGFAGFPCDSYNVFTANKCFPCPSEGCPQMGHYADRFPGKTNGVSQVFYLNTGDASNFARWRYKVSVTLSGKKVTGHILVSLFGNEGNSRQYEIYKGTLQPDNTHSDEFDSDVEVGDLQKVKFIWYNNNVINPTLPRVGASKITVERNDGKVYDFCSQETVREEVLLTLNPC
Nature of the assay: Inhibition of pig pancreatic lipase assessed as p-NPB hydrolysis […].
Regarding `COc1cc([C@@H](O)[C@H](C)O)ccc1O` (relative stereo), the IC50 came out at 12.1 µM.

For `COc1cc([C@H](O)[C@H](C)O)ccc1O` (relative stereo), the IC50 turned out to be 9.1 µM.

On to `COc1cc([C@H]2CC(=O)O[C@H]2C)ccc1O` (relative stereo) [CURCULACTONE A], for which the concentration for half-maximal inhibition (IC50) was found to be 232 µM.

For the molecule `COc1cc(C(=O)O)ccc1O` [VANILLIC ACID], the IC50 is over 250 µM.

With `COc1cc(C=O)ccc1O` [VANILLIN], the IC50 is 174 µM.
